Values of other authors as cited in patent US20050215535A1, “Sequential SPRM/progestin treatment” (priority 2004, published 2005).

What was measured:
progesterone receptor = molecular target: T1, progesterone receptor (Oryctolagus cuniculus, UniProt P06186); conditions: rabbit model; for McPhail score: scale of 0-4
T1 construct: SPRMs score lower than progesterone in the McPhail bioassay in rabbits; from tissue; host or cells: living rabbit (in vivo; the endometrium as read-out tissue is own knowledge of the McPhail test)
T1 sequence (P06186 1-930): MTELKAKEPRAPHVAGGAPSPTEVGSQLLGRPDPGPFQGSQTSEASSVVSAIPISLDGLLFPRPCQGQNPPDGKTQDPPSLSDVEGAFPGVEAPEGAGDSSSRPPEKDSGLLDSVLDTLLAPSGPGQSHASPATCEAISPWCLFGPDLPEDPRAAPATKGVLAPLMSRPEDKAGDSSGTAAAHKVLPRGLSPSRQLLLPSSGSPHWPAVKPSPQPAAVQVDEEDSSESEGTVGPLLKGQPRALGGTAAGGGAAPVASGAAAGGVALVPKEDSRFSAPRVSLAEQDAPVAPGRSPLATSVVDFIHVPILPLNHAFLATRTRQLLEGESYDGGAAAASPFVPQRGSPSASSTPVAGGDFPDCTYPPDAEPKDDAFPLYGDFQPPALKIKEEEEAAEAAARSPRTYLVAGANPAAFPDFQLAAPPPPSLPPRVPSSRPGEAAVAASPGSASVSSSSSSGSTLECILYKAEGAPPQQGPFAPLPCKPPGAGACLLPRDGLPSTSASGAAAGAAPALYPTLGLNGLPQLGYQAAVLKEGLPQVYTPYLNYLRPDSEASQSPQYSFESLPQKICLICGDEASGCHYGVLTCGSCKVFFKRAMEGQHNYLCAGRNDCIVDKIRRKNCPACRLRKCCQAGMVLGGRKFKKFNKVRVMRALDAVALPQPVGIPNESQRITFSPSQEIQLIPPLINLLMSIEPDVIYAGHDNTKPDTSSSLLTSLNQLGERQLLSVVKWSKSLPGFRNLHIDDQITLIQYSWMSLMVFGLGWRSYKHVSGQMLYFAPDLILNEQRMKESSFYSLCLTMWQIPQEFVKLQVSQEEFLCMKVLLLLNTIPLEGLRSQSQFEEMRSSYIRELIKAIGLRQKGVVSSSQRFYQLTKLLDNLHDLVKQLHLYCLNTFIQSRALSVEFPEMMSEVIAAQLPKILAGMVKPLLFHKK

agonist activity in the McPhail test (progesterone receptor)	McPhail score (progesterone receptor)	Compound	time to withdrawal bleeding (start of spontaneous menstrual cycle) after stopping the SPRM treatment (premenopausal women; all subjects)	resumption of menstruation after cessation of treatment (premenopausal women; majority of subjects) [days]
–	–	COC[C@]1(OC)CC[C@H]2[C@@H]3CCC4=CC(=O)CCC4=C3[C@@H](c3ccc(/C=N/O)cc3)C[C@@]21C [J867]	up to 90 days	≤ 30
do not show any agonist activity	less than 0.5	CC#C[C@]1(O)CC[C@H]2[C@@H]3CCC4=CC(=O)CCC4=C3[C@@H](c3ccc(N(C)C)cc3)C[C@@]21C [RU486, mifepristone]	–	–
do not show any agonist activity	–	CN(C)c1ccc([C@H]2C[C@]3(C)[C@@H](CC[C@]3(O)CCCO)[C@@H]3CCC4=CC(=O)CCC4=C32)cc1 [onapristone]	–	–
–	4	CC(=O)[C@H]1CC[C@H]2[C@@H]3CCC4=CC(=O)CC[C@]4(C)[C@H]3CC[C@]12C [progesterone]	–	–
